Here are results for one compound from patent US20260327214A1, “1,3,4-OXADIAZOLE DERIVATIVE COMPOUNDS AS HISTONE DEACETYLASE 6 INHIBITOR, AND USES THEREOF” (CHONG KUN DANG PHARMACEUTICAL CORP., priority 2022, published 2026).

One assay has as its target T1, human recombinant HDAC6 (Homo sapiens, UniProt Q9UBN7).
T1 construct: purchased Calbiochem 382180
T1 sequence (Q9UBN7 1-1215): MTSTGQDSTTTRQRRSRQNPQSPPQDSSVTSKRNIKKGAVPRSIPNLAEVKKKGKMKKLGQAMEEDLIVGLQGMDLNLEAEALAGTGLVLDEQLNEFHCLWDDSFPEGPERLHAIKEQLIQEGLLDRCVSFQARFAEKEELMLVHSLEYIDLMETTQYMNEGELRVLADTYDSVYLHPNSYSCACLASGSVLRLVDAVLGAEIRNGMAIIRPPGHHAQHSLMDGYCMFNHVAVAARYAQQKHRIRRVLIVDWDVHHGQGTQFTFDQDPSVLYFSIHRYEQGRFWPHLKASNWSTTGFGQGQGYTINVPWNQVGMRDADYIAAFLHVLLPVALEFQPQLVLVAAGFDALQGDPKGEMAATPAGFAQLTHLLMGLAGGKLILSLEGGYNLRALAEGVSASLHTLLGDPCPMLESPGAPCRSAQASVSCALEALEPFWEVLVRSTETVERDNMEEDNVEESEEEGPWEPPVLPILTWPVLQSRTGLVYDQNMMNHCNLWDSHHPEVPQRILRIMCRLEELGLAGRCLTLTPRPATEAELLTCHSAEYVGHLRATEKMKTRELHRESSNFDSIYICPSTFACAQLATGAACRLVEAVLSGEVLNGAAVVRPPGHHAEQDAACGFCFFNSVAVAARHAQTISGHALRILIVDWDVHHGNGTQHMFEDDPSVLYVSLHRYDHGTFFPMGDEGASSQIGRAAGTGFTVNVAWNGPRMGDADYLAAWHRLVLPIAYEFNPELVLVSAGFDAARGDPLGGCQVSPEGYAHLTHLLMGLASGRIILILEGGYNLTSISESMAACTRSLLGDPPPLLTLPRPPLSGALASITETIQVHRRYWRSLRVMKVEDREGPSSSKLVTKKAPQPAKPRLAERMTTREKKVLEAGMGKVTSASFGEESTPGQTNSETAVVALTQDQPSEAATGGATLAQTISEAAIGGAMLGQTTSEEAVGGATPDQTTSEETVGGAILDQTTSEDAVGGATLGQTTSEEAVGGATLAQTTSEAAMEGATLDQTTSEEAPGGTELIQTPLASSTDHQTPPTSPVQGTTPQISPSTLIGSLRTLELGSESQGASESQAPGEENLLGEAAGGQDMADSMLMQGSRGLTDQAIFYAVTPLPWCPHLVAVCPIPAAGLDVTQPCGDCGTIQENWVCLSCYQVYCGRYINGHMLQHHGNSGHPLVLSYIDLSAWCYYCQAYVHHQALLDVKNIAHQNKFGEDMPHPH
The assay is described as follows: HDAC6 enzyme activity inhibition test (HDAC Fluorometric Drug Discovery Kit). Format: biochemical. The procedure, abridged: (§1)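 Recombinant human HDAC1 or HDAC6 (0.3 μg) reacted with 10 μM Fluor de Lys SIRT1 substrate and 5-fold diluted compound for 60 min at 30 °C. Developer II added 30 min; fluorescence read at Ex 360/Em 460 and IC50 calculated.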

The next assay concerns the target T2, human recombinant HDAC1 (Homo sapiens, UniProt Q13547).
T2 construct: purchased Enzo Life Science BML-SE456
The assay is described as follows: HDAC1 enzyme activity inhibition test (HDAC Fluorometric Drug Discovery Kit). In kind it is biochemical. The note with it: 30° C., 60 minutes, 10 μM substrate. The procedure, abridged: as §1

T2 sequence (Q13547 whole entry): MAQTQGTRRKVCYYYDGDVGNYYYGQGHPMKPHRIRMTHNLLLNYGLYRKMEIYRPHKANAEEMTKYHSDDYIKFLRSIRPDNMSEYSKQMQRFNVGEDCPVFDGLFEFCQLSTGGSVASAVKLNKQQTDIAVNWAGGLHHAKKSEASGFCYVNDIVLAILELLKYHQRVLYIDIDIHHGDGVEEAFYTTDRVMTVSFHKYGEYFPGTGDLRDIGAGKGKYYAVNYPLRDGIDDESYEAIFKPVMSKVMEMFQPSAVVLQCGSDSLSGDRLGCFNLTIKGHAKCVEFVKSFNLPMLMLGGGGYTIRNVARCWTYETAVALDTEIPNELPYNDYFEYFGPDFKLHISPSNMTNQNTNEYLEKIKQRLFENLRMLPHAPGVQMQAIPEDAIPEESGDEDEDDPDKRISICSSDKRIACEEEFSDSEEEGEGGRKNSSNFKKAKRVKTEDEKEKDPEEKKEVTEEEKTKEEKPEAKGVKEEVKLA

By IC50 is commonly meant the concentration needed to halve the response being measured. Turning to `Cn1c(-c2ccccc2)cn(Cc2ccc(-c3nnc(C(F)F)o3)cn2)c1=O` [Compound 144, 1-((5-(5-(difluoromethyl)-1,3,4-oxadiazol-2-yl)pyridin-2-yl)methyl)-3-methyl-4-phenyl-1,3-dihydro-2H-imidazol-2-one], on human recombinant HDAC6 (HDAC6 over HDAC1), the “HDAC6 selectivity (fold)” value worked out at 185 fold. The IC50 at human recombinant HDAC6 (human recombinant HDAC6, same protocol as HDAC1) was 271 nM; on human recombinant HDAC1, more than 50000 nM.
